Laboratory results taken from patent US6875421B2, “Method for detecting chitin-containing organisms” (Albert Einstein College of Medicine of Yeshiva University, priority 1997, dated 2005).

Assays:
[1] = Toxicity: solution spread on dorsum of hands of volunteers; assay type: in vivo, human; details: 1% solution on dorsum of hands, 12 hours continuously
Experimental: The 1% solution was also spread on the dorsum of four hands of volunteers and allowed to remain continuously for 12 hours before being washed off.

deer ticks = assay: Visualizing deer ticks under long range UV light; design: species or system deer tick
Excerpt: Use as a visualizing agent for deer ticks was investigated as well. Live deer ticks were gathered from a wooded area in Westchester County, N.Y. and sprayed with a 1% solution of Calcofluor white. The ticks were placed on a white cotton sheet and exposed to long range UV light from a portable UV lamp.

P. capitis nits = assay: Visualizing nits on human hair under UV light; details: hair with attached nits dipped into 1% solution for two minutes, examined wet under UV light
Excerpt: Human hair with attached P. capitis nits obtained as a waste product after barbering were obtained and dipped into a 1% solution of calcofluor white for two minutes. The hair was removed and examined wet under UV light. […] Identification was easy, specific, and totally unambiguous.

O=S(=O)(O)c1cc(Nc2nc(Nc3ccccc3)nc(N(CCO)CCO)n2)ccc1/C=C/c1ccc(Nc2nc(Nc3ccccc3)nc(N(CCO)CCO)n2)cc1S(=O)(=O)O [calcofluor white]
physical reactions such as pruritus, erythema, induration or discoloration [1]: did not provoke any physical reactions | physical sensation on skin [1]: caused no physical sensation | visualization of deer ticks (fluorescence) under long range UV light (deer ticks; live ticks sprayed with 1% solution, on white cotton sheet, portable UV lamp): easily visualized as brightly fluorescent objects | fluorescence of deer ticks after subsequent spray (deer ticks; ticks without autofluorescence, then sprayed and exposed to ultraviolet light): intense fluorescence | visualization of nits (fluorescence) under UV light (P. capitis nits): clearly seen as brightly fluorescent white ovoid bodies
